We go through 14 molecules from patent publication US9580432B2, “Fused pyrimidine compound or salt thereof” (TAIHO PHARMACEUTICAL CO., LTD., priority 2013, dated 2017).

The test system of assay [1] is purified recombinant human EGFR protein / BTK. Put plainly: BTK inhibition selectivity compared with EGFR kinase inhibitory activity (in vitro). Type of assay: biochemical. The following applies: EGFR assay ATP 1.5 μM.
The subject of a further assay is A431 cells / TMD8 cells. Put plainly: Proliferation inhibitory activity against cell lines expressing BTK and EGFR (in vitro), comparison of selectivity. The format is cell-based, human. The following applies: ratio from GI50 (nM), 3 days culture, CELLTITER GLO. In short, it runs like this: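 BTK-expressing TMD8 DLBCL cells (RPMI1640/10% FBS) and EGFR-overexpressing A431 epidermoid carcinoma cells (DMEM/10% FBS) cultured 1 day, then exposed to compound (0.2% DMSO final) for 3 days at 37° C. Luminescence read-out; inhibition ratio % = (C−T)/(C−C0)×100, with A431/TMD8 ratio as selectivity index.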
(Cellular ATP, detected with luciferase, serves as a proxy for viable cell number.)

The target of assay [2] is purified recombinant human BTK protein (Homo sapiens (Human), UniProt Q06187). Put plainly: Measurement of BTK inhibitory activity (in vitro). The conditions noted are these: FL-PEPTIDE 2 substrate 1 μM, ATP 45 μM, 40 minutes at 25° C. The format is biochemical. In short, it runs like this: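 Recombinant human BTK with FL-PEPTIDE 2 substrate (1 μM), 45 μM ATP and 10 mM MgCl2 in 20 mM HEPES pH 7.5, 2 mM DTT, 0.01% Triton X-100, 5% DMSO; 40 min at 25° C. Reaction stopped with 30 mM EDTA. Phosphorylated and unphosphorylated peptide separated and detected by microchannel capillary electrophoresis.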
Chain of purified recombinant human BTK protein (Q06187 whole entry): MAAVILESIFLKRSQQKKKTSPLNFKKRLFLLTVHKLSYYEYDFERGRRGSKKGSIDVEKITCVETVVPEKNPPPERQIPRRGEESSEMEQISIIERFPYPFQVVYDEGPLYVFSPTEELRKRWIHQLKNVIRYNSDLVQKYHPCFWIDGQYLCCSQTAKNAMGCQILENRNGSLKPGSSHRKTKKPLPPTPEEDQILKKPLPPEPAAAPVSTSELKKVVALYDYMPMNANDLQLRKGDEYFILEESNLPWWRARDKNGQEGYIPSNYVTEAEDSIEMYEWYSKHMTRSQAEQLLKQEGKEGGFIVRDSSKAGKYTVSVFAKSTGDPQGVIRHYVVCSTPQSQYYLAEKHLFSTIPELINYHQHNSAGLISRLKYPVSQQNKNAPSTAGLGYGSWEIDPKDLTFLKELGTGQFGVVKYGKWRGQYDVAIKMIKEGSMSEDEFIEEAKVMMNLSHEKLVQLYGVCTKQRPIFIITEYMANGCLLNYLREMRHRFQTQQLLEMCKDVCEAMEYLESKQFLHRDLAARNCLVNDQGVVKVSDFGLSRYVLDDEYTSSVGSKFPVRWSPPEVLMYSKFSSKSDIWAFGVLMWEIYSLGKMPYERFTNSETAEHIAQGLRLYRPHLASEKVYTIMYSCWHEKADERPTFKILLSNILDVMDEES

Regarding `CCN(CC)C/C=C/C(=O)N1CCC[C@@H](n2nc(C(=O)Nc3nc4cc(Cl)ccc4o3)c3c(N)ncnc32)C1` [Example 17, (R,E)-4-amino-N-(5-chlorobenzo[d]oxazol-2-yl)-1-(1-(4-(diethylamino)but-2-enoyl)piperidin-3-yl)-1H-pyrazolo[3,4-d]pyrimidine-3-carboxamide], the “EGFR inhibitory activity IC50 value (nM)/BTK inhibitory activity IC50 value (nM)” value (from here on “EGFR inhibitory activity IC50 value”) in assay [1] was 157.2. Moreover, in the assay on A431 cells / TMD8 cells, the “A431 cell proliferation inhibition ratio/TMD8 cell proliferation inhibitio ratio” value was greater than 12345.7. In assay [2], the IC50 was 0.811 nM.

In the case of `C=CC(=O)N1CC[C@@H](n2nc(C(=O)Nc3nc4cc(C#N)ccc4o3)c3c(N)ncnc32)C1` [Example 39, (R)-1-(1-acryloylpyrrolidin-3-yl)-4-amino-N-(5-cyanobenzo[d]oxazol-2-yl)-1H-pyrazolo[3,4-d]pyrimidine-3-carboxamide], the “EGFR inhibitory activity IC50 value” value in assay [1] is given as 37.5. For the same molecule, the “A431 cell proliferation inhibition ratio/TMD8 cell proliferation inhibitio ratio” value in the assay with A431 cells / TMD8 cells was greater than 3510.0. For the same molecule, in assay [2], the IC50 amounted to 1.12 nM.

For the molecule `C/C=C/C(=O)N1CC[C@@H](n2nc(C(=O)Nc3nc4cc(Cl)ccc4o3)c3c(N)ncnc32)C1` [Example 25, (R,E)-4-amino-N-(5-chlorobenzo[d]oxazol-2-yl)-1-(1-(but-2-enoyl)pyrrolidin-3-yl)-1H-pyrazolo[3,4-d]pyrimidine-3-carboxamide], the “EGFR inhibitory activity IC50 value” value in assay [1] is recorded as 173.7. Besides, the “A431 cell proliferation inhibition ratio/TMD8 cell proliferation inhibitio ratio” value with A431 cells / TMD8 cells is given as 2793.0. The IC50 in assay [2] amounted to 1.17 nM.

With `C=CC(=O)N1CC[C@@H](n2nc(C(=O)Nc3nc4cc(F)ccc4o3)c3c(N)ncnc32)C1` [Example 30, (R)-1-(1-acryloylpyrrolidin-3-yl)-4-amino-N-(5-fluorobenzo[d]oxazol-2-yl)-1H-pyrazolo[3,4-d]pyrimidine-3-carboxamide], in assay [1], the “EGFR inhibitory activity IC50 value” value was 21.3. For the same molecule, the “A431 cell proliferation inhibition ratio/TMD8 cell proliferation inhibitio ratio” value with A431 cells / TMD8 cells was determined as 5164.3. In addition, the half-maximal inhibitory concentration (IC50) in assay [2] is 0.566 nM.

For `C=CC(=O)N[C@H]1CC[C@@H](n2nc(C(=O)Nc3nc4ccccc4o3)c3c(N)ncnc32)CC1` [Example 71, 1-((1S,4S)-4-acrylamidocyclohexyl)-4-amino-N-(benzo[d]oxazol-2-yl)-1H-pyrazolo[3,4-d]pyrimidine-3-carboxamide], the “EGFR inhibitory activity IC50 value” value in assay [1] was found to be 42.0. Also, in the assay on A431 cells / TMD8 cells, the “A431 cell proliferation inhibition ratio/TMD8 cell proliferation inhibitio ratio” value is given as greater than 7657.0. Moreover, the IC50 in assay [2] was determined as 5.89 nM.

Regarding `CN(C)C/C=C/C(=O)N1CC[C@@H](n2nc(C(=O)Nc3nc4cc(Cl)ccc4o3)c3c(N)ncnc32)C1` [Example 32, (R,E)-4-amino-N-(5-chlorobenzo[d]oxazol-2-yl)-1-(1-(4-(dimethylamino)but-2-enoyl)pyrrolidin-3-yl)-1H-pyrazolo[3,4-d]pyrimidine-3-carboxamide], in assay [1], the “EGFR inhibitory activity IC50 value” value is on record as 43.1. In the assay with A431 cells / TMD8 cells, the “A431 cell proliferation inhibition ratio/TMD8 cell proliferation inhibitio ratio” value is reported as greater than 11123.5. For the same molecule, in assay [2], the IC50 is 0.634 nM.

For the molecule `CCN(C)C/C=C/C(=O)N1CCC[C@@H](n2nc(C(=O)Nc3nc4cc(Cl)ccc4o3)c3c(N)ncnc32)C1` [Example 16, (R,E)-4-amino-N-(5-chlorobenzo[d]oxazol-2-yl)-1-(1-(4-(ethyl(methyl)amino)but-2-enoyl)piperidin-3-yl)-1H-pyrazolo[3,4-d]pyrimidine-3-carboxamide], the “EGFR inhibitory activity IC50 value” value in assay [1] came out at 158.1. The “A431 cell proliferation inhibition ratio/TMD8 cell proliferation inhibitio ratio” value in the assay with A431 cells / TMD8 cells is greater than 16313.2. Further, in assay [2], the IC50 was 0.733 nM.

For the molecule `C=CC(=O)N[C@H]1CC[C@H](n2nc(C(=O)Nc3nc4ccccc4o3)c3c(N)ncnc32)CC1` [Example 72, 1-((1R,4R)-4-acrylamidocyclohexyl)-4-amino-N-(benzo[d]oxazol-2-yl)-1H-pyrazolo[3,4-d]pyrimidine-3-carboxamide], in assay [1], the “EGFR inhibitory activity IC50 value” value amounted to 12.4. For the same molecule, the “A431 cell proliferation inhibition ratio/TMD8 cell proliferation inhibitio ratio” value with A431 cells / TMD8 cells was greater than 2802.7. Besides, the 50% inhibitory concentration (IC50) in assay [2] was 28.1 nM.

Take `Nc1ncnc2c1c(C(=O)Nc1nc3cc(Cl)ccc3o1)nn2[C@@H]1CCCN(C(=O)/C=C/CN2CCCC2)C1` [Example 19, (R,E)-4-amino-N-(5-chlorobenzo[d]oxazol-2-yl)-1-(1-(4-(pyrrolidin-1-yl)but-2-enoyl)piperidin-3-yl)-1H-pyrazolo[3,4-d]pyrimidine-3-carboxamide]: the “EGFR inhibitory activity IC50 value” value in assay [1] is 144.8. Moreover, the “A431 cell proliferation inhibition ratio/TMD8 cell proliferation inhibitio ratio” value in the assay on A431 cells / TMD8 cells is recorded as greater than 17825.3. Moreover, in assay [2], the IC50 came out at 0.69 nM.

With `CN(C)C/C=C/C(=O)N1CC[C@@H](n2nc(C(=O)Nc3nc4cc(-c5ccccc5)ccc4o3)c3c(N)ncnc32)C1` [Example 42, (R,E)-4-amino-N-(5-phenylbenzo[d]oxazol-2-yl)-1-(1-(4-(dimethylamino)but-2-enoyl)pyrrolidin-3-yl)-1H-pyrazolo[3,4-d]pyrimidine-3-carboxamide], the “EGFR inhibitory activity IC50 value” value in assay [1] was found to be 19.4. For the same molecule, the “A431 cell proliferation inhibition ratio/TMD8 cell proliferation inhibitio ratio” value in the assay with A431 cells / TMD8 cells is 3934.1. Moreover, in assay [2], the half-maximal inhibitory concentration (IC50) was found to be 0.771 nM.

On to `CCN(C)C/C=C/C(=O)N1CC[C@@H](n2cc(C(=O)Nc3nc4cc(Cl)ccc4o3)c3c(N)ncnc32)C1` [Example 50, (R,E)-4-amino-N-(5-chlorobenzo[d]oxazol-2-yl)-7-(1-(4-(ethyl(methyl)amino)but-2-enoyl)pyrrolidin-3-yl) 7H-pyrrolo[2,3-d]pyrimidine-5-carboxamide], for which the “EGFR inhibitory activity IC50 value” value in assay [1] is given as 22.1. Moreover, the “A431 cell proliferation inhibition ratio/TMD8 cell proliferation inhibitio ratio” value in the assay with A431 cells / TMD8 cells is reported as greater than 2767.8. Also, the IC50 in assay [2] was 1.41 nM.

In the case of `C=CC(=O)N1CCC(Cn2nc(C(=O)Nc3nc4ccccc4o3)c3c(N)ncnc32)CC1` [Example 68, 1-((1-acryloylpiperidin-4-yl)methyl)-4-amino-N-(benzo[d]oxazol-2-yl)-1H-pyrazolo[3,4-d]pyrimidine-3-carboxamide], the “EGFR inhibitory activity IC50 value” value in assay [1] was found to be 11.4. Moreover, the “A431 cell proliferation inhibition ratio/TMD8 cell proliferation inhibitio ratio” value in the assay on A431 cells / TMD8 cells was greater than 4785.8. For the same molecule, in assay [2], the half-maximal inhibitory concentration (IC50) was 13.2 nM.

As to `CC(C)N(C)C/C=C/C(=O)N1CC[C@@H](n2cc(C(=O)Nc3nc4cc(Cl)ccc4o3)c3c(N)ncnc32)C1` [Example 52, (R,E)-4-amino-N-(5-chlorobenzo[d]oxazol-2-yl)-7-(1-(4-(isopropyl(methyl)amino)but-2-enoyl)pyrrolidin-3-yl) 7H-pyrrolo[2,3-d]pyrimidine-5-carboxamide], in assay [1], the “EGFR inhibitory activity IC50 value” value is recorded as 20.6. Besides, the “A431 cell proliferation inhibition ratio/TMD8 cell proliferation inhibitio ratio” value in the assay with A431 cells / TMD8 cells is reported as greater than 3617.9. Further, the IC50 in assay [2] was 1.2 nM.

For the molecule `CC(C)N(C)C/C=C/C(=O)N1CCC[C@@H](n2nc(C(=O)Nc3nc4cc(Cl)ccc4o3)c3c(N)ncnc32)C1` [Example 18, (R,E)-4-amino-N-(5-chlorobenzo[d]oxazol-2-yl)-1-(1-(4-(isopropyl(methyl)amino)but-2-enoyl)piperidin-3-yl)-1H-pyrazolo[3,4-d]pyrimidine-3-carboxamide], the “EGFR inhibitory activity IC50 value” value in assay [1] was 121.3. In addition, the “A431 cell proliferation inhibition ratio/TMD8 cell proliferation inhibitio ratio” value in the assay on A431 cells / TMD8 cells is greater than 15625.0. Moreover, in assay [2], the IC50 was found to be 0.788 nM.

In general, IC50 refers to the concentration needed to halve the response being measured.
